The target of this assay is WDR5 (Homo sapiens (Human), UniProt P61964). As to the kind of experiment: TR-FRET binding assay, displacement of 10mer-Thr-FAM probe from His-tagged WDR5. The conditions noted are these: Inhibition of WDR5 by TR-FRET assay. Here is the method:
The LanthaScreenTM Elite Tb-anti-HIS Antibody from ThermoFisher Scientific was used for this purpose. […] The ratio of the 520 and 495 signals are then utilized to generate a dose-response curve to calculate an IC50 value. […] WDR[…] tag protein is used at 2 nM.
On the technique in general: In TR-FRET formats the signal depends on donor and acceptor labels being close together.

Bounds are passed on as bounds.

The record followed here is US10807959B2, “WDR5-MLL1 inhibitors and modulators” (Vanderbilt University, priority 2018, dated 2020).

A word on the Ki: it is a measure of affinity in units of concentration, obtained from inhibition or displacement. Low readings indicate tighter binding, high ones weaker binding.

With `COc1cc(OC)cc(C(C)NC(=O)c2cc(CNC3=NCCN3)cc(-c3ccc(F)cc3C)c2)c1` (racemic) [Example 1, (±)-5-(((4,5-dihydro-1H-imidazol-2-yl)amino)methyl)-N-(1-(3,5-dimethoxyphenyl)ethyl)-4′-fluoro-2′-methyl-[1,1′-biphenyl]-3-carboxamide], the Ki stood at 0.46 nM.

Take `COc1ccc(CNC(=O)c2cc(CNC3=NCCN3)cc(-c3ccc(F)nc3C)c2)cc1OC` [Example 4, 3-(((4,5-Dihydro-1H-imidazol-2-yl)amino)methyl)-N-(3,4-dimethoxybenzyl)-5-(6-fluoro-2-methylpyridin-3-yl)benzamide]: the affinity corresponds to a Ki of 0.36 nM.

For the molecule `Cc1cc(CNC(=O)c2cc(CNC3=NCCN3)cc(-c3ccc(F)nc3C)c2)ccc1Cl` [Example 5, N-(4-chloro-3-methylbenzyl)-3-(((4,5-dihydro-1H-imidazol-2-yl)amino)methyl)-5-(6-fluoro-2-methylpyridin-3-yl)benzamide], the Ki is 0.02 nM.

Take `Cc1cc(C)cc(CNC(=O)c2cc(CNC3=NCCN3)cc(-c3ccc(F)nc3C)c2)c1` [Example 6, 3-(((4,5-Dihydro-1H-imidazol-2-yl)amino)methyl)-N-(3,5-dimethylbenzyl)-5-(6-fluoro-2-methylpyridin-3-yl)benzamide]: the Ki was determined as 0.14 nM.

The molecule `COc1cc(CN(C)C(=O)c2cc(CNC3=NCCN3)cc(-c3ccc(F)nc3C)c2)cc(OC)c1` [Example 8, 3-(((4,5-Dihydro-1H-imidazol-2-yl)amino)methyl)-N-(3,5-dimethoxybenzyl)-5-(6-fluoro-2-methylpyridin-3-yl)-N-methylbenzamide] returned a Ki of 12 nM.

As to `Cc1ccnc(C(NC(=O)c2cc(CNC3=NCCN3)cc(-c3ccc(F)nc3C)c2)C2CC2)c1` (centres unmarked) [Example 9, N-(Cyclopropyl(4-methylpyridin-2-yl)methyl)-3-(((4,5-dihydro-1H-imidazol-2-yl)amino)methyl)-5-(6-fluoro-2-methylpyridin-3-yl)benzamide], the Ki is < 0.1 nM.

`Cc1nc(F)ccc1-c1cc(CNC2=NCCN2)cc(C(=O)NC(C2CC2)C2CC2)c1` [Example 10, N-(dicyclopropylmethyl)-3-(((4,5-dihydro-1H-imidazol-2-yl)amino)methyl)-5-(6-fluoro-2-methylpyridin-3-yl)benzamide]: the affinity, expressed as Ki, was 2.9 nM.

On to `COc1ccnc(CNC(=O)c2cc(CNC3=NCCN3)cc(-c3ccc(F)nc3C)c2)c1` [Example 11, 3-(((4,5-Dihydro-1H-imidazol-2-yl)amino)methyl)-5-(6-fluoro-2-methylpyridin-3-yl)-N-((4-methoxypyridin-2-yl)methyl)benzamide], for which affinity was put at a Ki of 0.22 nM.

Regarding `Cc1ccncc1-c1cc(CNC2=NCCN2)cc(C(=O)NCc2ccc(Cl)c(Cl)c2)c1` [Example 12, N-(3,4-dichlorobenzyl)-3-(((4,5-dihydro-1H-imidazol-2-yl)amino)methyl)-5-(4-methylpyridin-3-yl)benzamide], the Ki was < 0.1 nM.

`COc1cc(CNC(=O)c2cc(CNC3=NCCN3)cc(-c3cnccc3C)c2)cc(OC)c1` [Example 13, 3-(((4,5-dihydro-1H-imidazol-2-yl)amino)methyl)-N-(3,5-dimethoxybenzyl)-5-(4-methylpyridin-3-yl)benzamide] yielded a Ki of 0.53 nM.

Turning to `COc1ccc(CNC(=O)c2cc(CNC3=NCCN3)cc(-c3cnccc3C)c2)cc1Cl` [Example 14, N-(3-chloro-4-methoxybenzyl)-3-(((4,5-dihydro-1H-imidazol-2-yl)amino)methyl)-5-(4-methylpyridin-3-yl)benzamide], the Ki stood at 0.74 nM.

As for `COc1ccc(CNC(=O)c2cc(CNC3=NCCN3)cc(-c3ccnc(C)c3)c2)cc1OC` [Example 15, 3-(((4,5-dihydro-1H-imidazol-2-yl)amino)methyl)-N-(3,4-dimethoxybenzyl)-5-(2-methylpyridin-4-yl)benzamide], the inhibitory constant (Ki) worked out at 1.7 nM.

`Cc1cc(-c2cc(CNC3=NCCN3)cc(C(=O)NCc3cc(F)cc(Cl)c3)c2)ccn1` [Example 16, N-(3-chloro-5-fluorobenzyl)-3-(((4,5-dihydro-1H-imidazol-2-yl)amino)methyl)-5-(2-methylpyridin-4-yl)benzamide]: the Ki is 0.52 nM.

Consider `COc1cc(CNC(=O)c2cc(CNC3=NCCN3)cc(-c3ccnc(C)c3)c2)ccc1Cl` [Example 17, N-(4-chloro-3-methoxybenzyl)-3-(((4,5-dihydro-1H-imidazol-2-yl)amino)methyl)-5-(2-methylpyridin-4-yl)benzamide], for which the affinity, expressed as Ki, was 3.2 nM.

Take `COc1cc(CNC(=O)c2cc(CNC3=NCCN3)cc(-c3cnccc3C)c2)ccc1Cl` [Example 18, N-(4-Chloro-3-methoxybenzyl)-3-(((4,5-dihydro-1H-imidazol-2-yl)amino)methyl)-5-(4-methylpyridin-3-yl)benzamide]: the Ki is 3.1 nM.

`COc1ccnc(CNC(=O)c2cc(CNC3=NCCN3)cc(-c3cnccc3C)c2)c1` [Example 19, 3-(((4,5-Dihydro-1H-imidazol-2-yl)amino)methyl)-N-((4-methoxypyridin-2-yl)methyl)-5-(4-methylpyridin-3-yl)benzamide] yielded a Ki of 0.45 nM.

In turn, `COc1cc(OC)cc(C(C)NC(=O)c2cc(CNC3=NCCN3)cc(-c3cnccc3C)c2)c1` (centres unmarked) [Example 20, 3-(((4,5-dihydro-1H-imidazol-2-yl)amino)methyl)-N-(1-(3,5-dimethoxyphenyl)ethyl)-5-(4-methylpyridin-3-yl)benzamide] registered a Ki of 0.6 nM.

Consider `COc1ccnc(CNC(=O)c2cc(CNC3=NCCN3)cc(-c3ccnc(C)c3)c2)c1` [Example 21, 3-(((4,5-Dihydro-1H-imidazol-2-yl)amino)methyl)-N-((4-methoxypyridin-2-yl)methyl)-5-(2-methylpyridin-4-yl)benzamide], for which the Ki turned out to be 0.39 nM.

In the case of `Cc1cc(-c2cc(CNC3=NCCN3)cc(C(=O)NCc3cc(Cl)ccn3)c2)ccn1` [Example 22, N-((4-chloropyridin-2-yl)methyl)-3-(((4,5-dihydro-1H-imidazol-2-yl)amino)methyl)-5-(2-methylpyridin-4-yl)benzamide], affinity was put at a Ki of 0.28 nM.

`COc1ccc(CNC(=O)c2cc(CNC3=NCCN3)cc(-c3ccnc(C)c3)c2)cc1Cl` [Example 23, N-(3-chloro-4-methoxybenzyl)-3-(((4,5-dihydro-1H-imidazol-2-yl)amino)methyl)-5-(2-methylpyridin-4-yl)benzamide]: the Ki was determined as 1.3 nM.

Take `Cc1ccncc1-c1cc(CNC2=NCCN2)cc(C(=O)NCc2cc(F)cc(Cl)c2)c1` [Example 24, N-(3-chloro-5-fluorobenzyl)-3-(((4,5-dihydro-1H-imidazol-2-yl)amino)methyl)-5-(4-methylpyridin-3-yl)benzamide]: the affinity, expressed as Ki, was 0.37 nM.

As to `Cc1ccnc(C(NC(=O)c2cc(CNC3=NCCN3)cc(-c3cnccc3C)c2)C2CC2)c1` (centres unmarked) [Example 25, N-(cyclopropyl(4-methylpyridin-2-yl)methyl)-3-(((4,5-dihydro-1H-imidazol-2-yl)amino)methyl)-5-(4-methylpyridin-3-yl)benzamide], affinity was put at a Ki of 0.2 nM.

Regarding `Cc1ccc(CNC(=O)c2cc(CNC3=NCCN3)cc(-c3ccnc(C)c3)c2)cn1` [Example 26, 3-(((4,5-dihydro-1H-imidazol-2-yl)amino)methyl)-N-((6-methylpyridin-3-yl)methyl)-5-(2-methylpyridin-4-yl)benzamide], the Ki amounted to 3 nM.
